# Measurements published in patent US20240246992A1, “MACROCYCLIC LRRK2 KINASE INHIBITORS” (LES LABORATOIRES SERVIER, priority 2021, published 2024).
# Structures can show the parent of a compound that is named as a salt.
# Target: human recombinant LRRK2 protein (Homo sapiens, UniProt Q5S007)
# Assay: LRRK2 kinase activity assay (ADP-Glo, LRRKtide peptide)
# Type: biochemical
# Details: human recombinant LRRK2 wt, LRRKtide peptide and ATP, 1 h at 37° C.
# Method in brief: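 ADP-Glo luminescence read-out of a peptide assay: compound, ATP and LRRKtide substrate combined with recombinant human LRRK2 and incubated at 37 °C for 1 h. Ten-point data, N=2, curve-fitted to IC50.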
# Sequence of human recombinant LRRK2 protein (Q5S007 whole entry): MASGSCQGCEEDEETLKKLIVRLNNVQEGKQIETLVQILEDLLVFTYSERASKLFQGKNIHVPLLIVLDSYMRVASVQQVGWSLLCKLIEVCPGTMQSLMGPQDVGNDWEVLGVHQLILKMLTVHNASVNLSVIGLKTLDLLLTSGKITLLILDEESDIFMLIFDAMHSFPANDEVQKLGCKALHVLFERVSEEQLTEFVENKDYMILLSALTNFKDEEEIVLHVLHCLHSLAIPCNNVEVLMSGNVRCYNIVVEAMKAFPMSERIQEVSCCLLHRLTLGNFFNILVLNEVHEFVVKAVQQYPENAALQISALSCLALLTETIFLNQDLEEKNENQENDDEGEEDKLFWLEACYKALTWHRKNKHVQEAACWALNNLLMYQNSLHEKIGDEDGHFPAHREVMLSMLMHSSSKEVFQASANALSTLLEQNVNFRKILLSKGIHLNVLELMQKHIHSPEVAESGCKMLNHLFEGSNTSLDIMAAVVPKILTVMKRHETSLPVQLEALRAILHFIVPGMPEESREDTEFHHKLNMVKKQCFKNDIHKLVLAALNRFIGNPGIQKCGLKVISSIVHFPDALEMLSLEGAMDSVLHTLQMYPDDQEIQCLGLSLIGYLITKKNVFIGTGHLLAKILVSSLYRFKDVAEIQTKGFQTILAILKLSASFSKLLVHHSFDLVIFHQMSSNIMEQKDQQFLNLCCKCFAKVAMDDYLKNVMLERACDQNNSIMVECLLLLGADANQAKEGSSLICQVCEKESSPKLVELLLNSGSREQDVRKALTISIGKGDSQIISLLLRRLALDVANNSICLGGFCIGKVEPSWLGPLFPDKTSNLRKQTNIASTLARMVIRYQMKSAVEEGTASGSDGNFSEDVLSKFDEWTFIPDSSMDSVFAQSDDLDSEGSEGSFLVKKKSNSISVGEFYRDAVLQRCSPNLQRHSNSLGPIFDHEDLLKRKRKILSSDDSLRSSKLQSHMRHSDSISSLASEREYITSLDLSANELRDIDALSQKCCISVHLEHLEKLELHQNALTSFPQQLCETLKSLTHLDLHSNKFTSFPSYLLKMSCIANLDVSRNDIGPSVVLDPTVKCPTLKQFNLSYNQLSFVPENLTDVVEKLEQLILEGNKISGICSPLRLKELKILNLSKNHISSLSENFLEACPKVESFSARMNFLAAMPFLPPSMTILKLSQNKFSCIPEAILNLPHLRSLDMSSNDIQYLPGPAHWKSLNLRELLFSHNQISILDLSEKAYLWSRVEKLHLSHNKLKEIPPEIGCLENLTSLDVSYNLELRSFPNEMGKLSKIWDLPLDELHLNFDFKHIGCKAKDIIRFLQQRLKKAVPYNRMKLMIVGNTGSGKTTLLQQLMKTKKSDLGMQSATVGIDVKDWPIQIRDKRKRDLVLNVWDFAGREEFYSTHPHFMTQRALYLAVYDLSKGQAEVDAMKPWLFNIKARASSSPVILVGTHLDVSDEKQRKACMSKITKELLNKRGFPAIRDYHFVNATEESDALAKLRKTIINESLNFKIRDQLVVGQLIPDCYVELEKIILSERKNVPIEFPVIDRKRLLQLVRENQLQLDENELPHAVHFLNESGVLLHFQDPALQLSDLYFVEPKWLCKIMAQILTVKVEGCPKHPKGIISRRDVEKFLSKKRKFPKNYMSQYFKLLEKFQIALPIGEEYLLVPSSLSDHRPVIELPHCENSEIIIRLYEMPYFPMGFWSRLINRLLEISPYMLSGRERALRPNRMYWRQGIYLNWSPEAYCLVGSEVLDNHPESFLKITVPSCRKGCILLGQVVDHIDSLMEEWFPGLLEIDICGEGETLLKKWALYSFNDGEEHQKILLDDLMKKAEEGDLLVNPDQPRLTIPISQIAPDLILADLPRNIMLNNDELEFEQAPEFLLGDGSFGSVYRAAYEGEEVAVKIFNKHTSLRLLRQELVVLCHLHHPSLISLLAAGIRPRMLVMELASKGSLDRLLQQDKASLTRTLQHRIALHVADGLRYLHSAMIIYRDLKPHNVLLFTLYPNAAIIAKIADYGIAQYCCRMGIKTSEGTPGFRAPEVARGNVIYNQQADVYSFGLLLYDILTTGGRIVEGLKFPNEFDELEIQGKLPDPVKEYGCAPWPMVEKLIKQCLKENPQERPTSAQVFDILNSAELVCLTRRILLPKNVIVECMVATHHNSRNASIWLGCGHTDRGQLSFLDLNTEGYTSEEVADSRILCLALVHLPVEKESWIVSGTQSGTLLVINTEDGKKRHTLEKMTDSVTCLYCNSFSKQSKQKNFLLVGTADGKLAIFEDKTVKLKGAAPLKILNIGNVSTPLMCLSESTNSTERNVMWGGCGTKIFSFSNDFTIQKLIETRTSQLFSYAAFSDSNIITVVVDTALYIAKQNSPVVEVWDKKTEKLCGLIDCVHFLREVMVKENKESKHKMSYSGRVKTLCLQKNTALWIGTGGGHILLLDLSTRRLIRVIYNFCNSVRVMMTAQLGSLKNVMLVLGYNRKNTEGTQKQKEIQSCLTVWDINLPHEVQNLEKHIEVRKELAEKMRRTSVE
row,Structure (SMILES),IC50 [nM]
1,"C[C@@H]1COCCCOc2ccc3[nH]nc(c3c2)-c2ccnc(n2)O1 [Example 55, (8R)-8-methyl-7,10,14-trioxa-5,19,20,23-tetraazatetracyclo[13.5.2.1^2,6.0^18,21] tricosa-1(20),2(23),3,5,15(22),16,18(21)heptaene]",< 10
2,"C[C@@H]1COCCOCCn2ccc(n2)-c2n[nH]c3ccc(cc23)O1 [Example 83, (13R)-13-methyl-8,11,14-trioxa-5,19,20,23-tetraazatetracyclo[13.5.2.1^2,5.0^18,21]tricosa-1(20),2(23),3,15(22),16,18(21)-hexaene]",< 1000
3,"C[C@@H]1COc2ccc3[nH]nc(c3c2)-c2cc(C#N)n(c2)CCOCCO1 [Example 86, (12R)-12-methyl-8,11,14-trioxa-5,19,20-triazatetracyclo [13.5.2.1^2,5.0^18,21]tricosa-1(20),2(23),3,15(22),16,18(21)-hexaene-4-carbonitrile]",< 10
4,"COC1COCCOC[C@@H](C)Oc2ccc3[nH]nc(c3c2)-c2cnn1c2 (stereo partly drawn) [Example 95, (13R)-6-methoxy-13-methyl-8,11,14-trioxa-4,5,19,20-tetraazatetracyclo [13.5.2.1^2,5.0^18,21]tricosa-1(20),2(23),3,15(22),16,18(21)-hexaene]",< 100
5,"C[C@@H]1COCC[C@H](C)Oc2ccc3[nH]nc(c3c2)-c2cncc(c2)O1 [Example 21, (8R,13S)-8,13-dimethyl-7,10,14-trioxa-4,19,20-triazatetracyclo[13.5.2.1^2,6.0^18,21]tricosa-1(20),2(23),3,5,15(22),16,18(21)-heptaene]",< 10
6,"C[C@@H]1COCCO[C@H](C)c2cncc(c2)-c2n[nH]c3ccc(cc23)O1 [Example 13, (7R,13R)-7,13-dimethyl-8,11,14-trioxa-4,19,20-triazatetracyclo[13.5.2.1^2,6. 0^18,21]tricosa-1(20),2(23),3,5,15(22),16,18(21)-heptaene hydrochloride]",< 100
7,"C[C@@H]1COCC[C@H](C)Oc2cncc(c2)-c2n[nH]c3ccc(cc23)O1 [Example 11, (8S,13R)-8,13-dimethyl-7,11,14-trioxa-4,19,20-triazatetracyclo[13.5.2.1^2,6.0^18,21]tricosa-1(20),2(23),3,5,15(22),16,18(21)-heptaene]",< 100
8,"FC1(F)COCCOCCn2cc(cn2)-c2n[nH]c3ccc(cc23)O1 [Example 78, 13,13-difluoro-8,11,14-trioxa-4,5,19,20-tetraazatetra cyclo[13.5.2.1^2,5.0^18,21]tricosa-1(20),2(23),3, 15(22),16,18(21)-hexaene]",< 10
9,"C[C@@H]1COCCO[C@@H](C)COc2ccc3[nH]nc(c3c2)-c2cnn1c2 [Example 87, (6R,12S)-6,12-dimethyl-8,11,14-trioxa-4,5,19,20-tetraazatetracyclo[13.5.2.1^2,5.0^18,21]tricosa-1(20),2(23),3,15(22),16,18(21)-hexaene]",< 10
10,"C[C@H]1COCC[C@H](C)Oc2ccc3[nH]nc(c3c2)-c2cnn(c2)C1 [Example 52, (7R,12S)-7,12-dimethyl-9,13-dioxa-4,5,18,19-tetraazatetracyclo[12.5.2.1^2,5.0^17,20]docosa-1(19),2(22),3,14(21),15,17(20)-hexaene]",< 10
11,"c1cc2[nH]nc3c2cc1OCCCOCCCCn1cc-3cn1 [Example 6, 10,14-dioxa-4,5,19,20-tetraazatetracyclo[13.5.2.1^2,5.0^18,21]tricosa-1(20),2(23), 3,15(22),16,18(21)-hexaene]",< 10
12,"C[C@H]1OCCOCCn2cc(cn2)-c2n[nH]c3ccc(cc23)O[C@@H]1C [Example 113, (12R,13R)-12,13-dimethyl-8,11,14-trioxa-4,5,19,20-tetraazatetracyclo [13.5.2.1^2,5.0^18,21]tricosa-1(20),2(23),3,15(22),16,18(21)-hexaene]",< 10

# Further lines, results first:
row,IC50 [nM],Structure (SMILES)
1,< 100,"COCC1CCOc2ccc3[nH]nc(c3c2)-c2cccc(c2)OCC(=O)N1 (single isomer, unassigned) [Example 152, (11R) or (11S)-11-(methoxymethyl)-7,14-dioxa-10,19,20-triazatetracyclo[13.5.2.1^2,6.0^18,21]tricosa-1(20),2(23),3,5,15,17,21-heptaen-9-one]"
2,< 10,"O=C1COc2cc(cc(N3CCCC3)c2)-c2n[nH]c3ccc(cc23)OCCCN1 [Example 205, 4-(pyrrolidin-1-yl)-7,14-dioxa-10,19,20-triazatetracyclo [13.5.2.1^2,6.0^18,21]tricosa-1(20),2(23),3,5,15,17,21-heptaen-9-one]"
3,< 10,"FC(F)(F)c1cc2cc(c1)-c1n[nH]c3ccc(cc13)OCCCNCCO2 [Example 186, 4-(trifluoromethyl)-7,14-dioxa-10,19,20-triazatetracyclo [13.5.2.1^2,6.0^18,21]tricosa-1(20),2,4,6(23),15,17,21-heptaene]"
4,< 10,"c1cc2[nH]nc3c2cc1OCCCNCCCn1ncc-3n1 [Example 182, 13-oxa-4,5,9,18,19,22-hexaazatetracyclo[12.5.2.1^2,5.0^17,20] docosa-1(19),2(22),3,14(21),15,17(20)-hexaene]"
5,< 10,"C[C@@H]1CCNC(=O)CCn2ncc(n2)-c2n[nH]c3ccc(cc23)O1 [Example 223, (12R)-12-methyl-13-oxa-4,5,9,18,19,22-hexaazatetracyclo[12.5.2.1^2,5.0^17,20]docosa-1(19),2(22),3,14(21),15,17(20)-hexaen-8-one]"
6,< 10,"c1cc2nc(c1)-c1n[nH]c3ccc(cc13)OCCCNCCO2 [Example 237, 7,14-dioxa-10,19,20,23-tetraazatetracyclo[13.5.2.1^2,6.0^18,21]tricosa-1(20),2,4,6(23),15,17,21-heptaene]"
7,< 10,"Cc1cc2[nH]nc3c2cc1OCCCNCCOc1cncc-3c1 [Example 188, 16-methyl-7,14-dioxa-4,10,19,20-tetraazatetracyclo[13.5.2.1^2,6.0^18,21]tricosa-1(20),2(23),3,5,15(22),16,18(21)-heptaene]"
8,< 100,"C[C@@H]1CCNC(=O)COc2cncc(c2)-c2n[nH]c3ccc(cc23)O1 [Example 162, (13R)-13-methyl-7,14-dioxa-4,10,19,20-tetraazatetracyclo[13.5.2.1^2,6.0^18,21]tricosa-1(20),2,4,6(23),15(22),16,18(21)-heptaen-9-one]"
9,< 100,"O=C1NCCCOc2ccc3[nH]nc(c3c2)-c2cncc(c2)OC12CC2 [Example 156, 7′,14′-dioxa-4′,10′,19′,20′-tetraazaspiro[cyclopropane-1,8′-tetracyclo[13.5.2.1^2,6.0^18,21]tricosane]-1′(20′),2′(23′),3′,5′,15′,17′,21′-heptaen-9′-one]"
10,< 10,"c1cc2[nH]nc3c2cc1OCCCNCCOc1cncc-3c1 [Example 137, 7,14-dioxa-4,10,19,20-tetraazatetracyclo[13.5.2.1^2,6.0^18,21]tricosa-1(20),2,4,6(23),15,17,21-heptaene]"
11,< 10,"C[C@@H]1CCCOCCn2ncc(n2)-c2n[nH]c3ccc(cc23)O1 [Example 124, (12R)-12-methyl-8,13-dioxa-4,5,18,19,22-pentaazatetracyclo [12.5.2.1^2,5.0^17,20]docosa-1(19),2(22),3,14(21),15,17(20)-hexaene]"
